# Test system: lashes and adjacent hairs of the treated eye
# Experiment: Observation of lashes in glaucoma patients treated with bimatoprost in one eye
# Assay type: in vivo
# Settings: glaucoma patient treated in only one eye
# Source text: In the course of treating patients having glaucoma, treatment may only be appropriate in one eye. […] The lash appearance on the lids of the treated eyes would have appeared quite attractive if it represented a bilateral phenomenon. As a result of its asymmetric nature, the long lashes on one side could be construed as disturbing from a cosmetic standpoint. A systemic examination was preformed as a result of the asymmetric phenomenon. It soon became apparent that this altered appearance was not an isolated finding. […] Definite differences could be identified to varying degrees in the lashes and adjacent hairs of all patients who were taking the drug on a unilateral basis for longer than 6 months.
# The changes in the lashes were apparent on gross inspection in several patients once attention was focused on the issue. In those with light colored hair and lashes, the differences were only seen easily with the aid of the high magnification and lighting capabilities of the slit lamp biomicroscope. In the course of glaucoma follow-up examination, attention is generally immediately focused on the eye itself. As a result of the high power magnification needed only one eye is seen at a time and the eye is seen at a high enough power that the lashes are not in focus. […]
smiles,measurement,value
CCNC(=O)CCC/C=C\C[C@@H]1[C@@H](/C=C/[C@@H](O)CCc2ccccc2)[C@H](O)C[C@@H]1O [bimatoprost],lashes in the treated eye compared with the non-treated eye,"longer, thicker, and fuller"

# Reference: US7713968B2, “Substituted arylcyclopentenes as therapeutic agents” (Allergan, Inc., priority 2008, dated 2010)
